≈ marks a conversion by molar mass, not a printed value.
Columns and labels:
[1] = test system: Plasma; assay: Anticoagulant activity in New Zealand white rabbit platelet-poor plasma assessed as fibrinogen content at 100 uM; format: functional, Oryctolagus cuniculus
[2] = test system: Plasma; assay: Anticoagulant activity in New Zealand white rabbit platelet-poor plasma assessed as thrombin time at 100 uM; format: functional, Oryctolagus cuniculus
[3] = test system: Radical scavenging activity; assay: Antioxidant activity assessed as inhibition of DPPH-radical production; format: functional
[4] = test system: PC-12; assay: Neuroprotective activity in rat PC12 cells assessed as inhibition of H2O2-induced cytotoxicity at 25 uM after 3 hrs by MTT assay relative to control; format: functional; conditions: PC-12, 3 h
[5] = Aqueous solubility of the compound by UV-Vis spectrophotometric analysis; format: physicochemical; conditions: water
[6] = test system: Plasma; assay: Anticoagulant activity in New Zealand white rabbit platelet-poor plasma assessed as prothrombin time at 100 uM; format: functional, Oryctolagus cuniculus
[7] = test system: PC-12; assay: Neuroprotective activity in rat PC12 cells assessed as inhibition of H2O2-induced cytotoxicity at 50 uM after 3 hrs by MTT assay relative to control; format: functional; conditions: PC-12, 3 h
[8] = test system: Plasma; assay: Anticoagulant activity in New Zealand white rabbit platelet-poor plasma assessed as activated partial thromboplastin time at 100 uM; format: functional, Oryctolagus cuniculus

For `O=c1cc(-c2ccc(O)cc2)oc2cc(O[C@@H]3O[C@H](CO)[C@H](O)[C@H](O)[C@H]3O)c(O)c(O)c12`, the Activity [1] was 20.81 g/L, the TT [2] was 29.17 s and the IC50 [3] was 28.4 µM. It also gave an inhibition at 25 µM [4] of 61%, a solubility [5] of 8.93 µM (≈ 4 µg/mL) and a PT [6] of 9.93 s. It also gave an inhibition at 50 µM [7] of 83.3% and an APTT [8] of 39.62 s.
Compound `O=c1cc(-c2ccc(O)cc2)oc2cc(O[C@@H]3O[C@H](CO)[C@@H](O)[C@H](O)[C@@H]3O)c(O)c(O)c12` has an Activity [1] of 26.68 g/L, a TT [2] of 20.54 s and an IC50 [3] of 34.9 µM. The inhibition at 25 µM [4] was 23.5%, the solubility [5] was 8.19 µM (≈ 3.67 µg/mL) and the PT [6] was 6.57 s. For the same compound, the inhibition at 50 µM [7] was 56.4% and the APTT [8] was 38.2 s.
`O=c1cc(-c2ccc(O)cc2)oc2cc(O[C@@H]3O[C@H](CO)[C@@H](O)[C@H](O)[C@H]3O)c(O)c(O)c12` showed an Activity [1] of 32.43 g/L, a TT [2] of 18.13 s and an IC50 [3] of 25.3 µM. The inhibition at 25 µM [4] was 65.5%, the solubility [5] was 7.85 µM (≈ 3.52 µg/mL) and the PT [6] was 7.81 s. It also gave an inhibition at 50 µM [7] of 79.9% and an APTT [8] of 43.06 s.
For `O=C(O)[C@H]1O[C@@H](Oc2cc3oc(-c4ccc(O)cc4)cc(=O)c3c(O)c2O)[C@H](O)[C@@H](O)[C@@H]1O` [SCUTELLARIN], the Activity [1] was 37.96 g/L, the TT [2] was 21.35 s and the IC50 [3] was 26.8 µM. It also gave an inhibition at 25 µM [4] of 52.6%, a solubility [5] of 7.53 µM (≈ 3.48 µg/mL) and a PT [6] of 6.91 s. It also gave an inhibition at 50 µM [7] of 78.8% and an APTT [8] of 33.06 s.
